Measurements taken from ChEMBL document CHEMBL2074492, “Selective substrates for non-neuronal monoamine transporters” (Mol Pharmacol, 1999).

B1: Solute carrier family 22 member 2 (Rattus norvegicus) (protein)
chain: MSTVDDILEHIGEFHLFQKQTFFLLALLSGAFTPIYVGIVFLGFTPDHHCWSPGAAKLSQRCGWSQAEELNYTVPGLGPSDEASFLSQCMRYEVDWNQSTLDCVDPLSSLAADRNQLPLGPCEHGWVYNTPGSSIVTEFNLVCAHSWMLDLFQSVVNVGFFIGAMMIGYLADRFGRKFCLLVTILINAISGALMAISPNYAWMLVFRFLQGLVSKAGWLIGYILITEFVGLGYRRMVGICYQIAFTVGLLILAGVAYVIPNWRWLQFAVTLPNFCFLLYFWCIPESPRWLISQNKIVKAMKIIKHIAKKNGKSVPVSLQNLTPDEDAGKKLNPSFLDLVRTPQIRKHTLILMYNWFTSSVLYQGLIMHMGLAGDNIYLDFFYSALVEFPAAFIIILTIDRVGRRYPWAVSNMVAGAACLASVFIPDDLQWLKITIACLGRMGITMAYEMVCLVNAELYPTYIRNLGVLVCSSMCDIGGIITPFLVYRLTDIWMEFPLVVFAVVGLVAGALVLLLPETKGKALPETIEDAENMQRPRKKKEKRIYLQVKQADRPLS

Legend:
[1] = biological target: T1, Solute carrier family 22 member 2 (Rattus norvegicus, UniProt Q9R0W2); experiment: TP_TRANSPORTER: inhibition of MPP+ uptake in OCT2-expressing HEK293 cells; type: functional, cell-based
T1 sequence (Q9R0W2 whole entry): B1 chain

[2] = biological target: T1, Solute carrier family 22 member 2; experiment: (§1) TP_TRANSPORTER: uptake in OCT2-expressing HEK293 cells; type: functional, cell-based; settings: human
[3] = biological target: T2, Solute carrier family 22 member 1 (Rattus norvegicus, UniProt Q63089); experiment: TP_TRANSPORTER: inhibition of MPP+ uptake in OCT1-expressing HEK293 cells
T2 sequence (Q63089 whole entry): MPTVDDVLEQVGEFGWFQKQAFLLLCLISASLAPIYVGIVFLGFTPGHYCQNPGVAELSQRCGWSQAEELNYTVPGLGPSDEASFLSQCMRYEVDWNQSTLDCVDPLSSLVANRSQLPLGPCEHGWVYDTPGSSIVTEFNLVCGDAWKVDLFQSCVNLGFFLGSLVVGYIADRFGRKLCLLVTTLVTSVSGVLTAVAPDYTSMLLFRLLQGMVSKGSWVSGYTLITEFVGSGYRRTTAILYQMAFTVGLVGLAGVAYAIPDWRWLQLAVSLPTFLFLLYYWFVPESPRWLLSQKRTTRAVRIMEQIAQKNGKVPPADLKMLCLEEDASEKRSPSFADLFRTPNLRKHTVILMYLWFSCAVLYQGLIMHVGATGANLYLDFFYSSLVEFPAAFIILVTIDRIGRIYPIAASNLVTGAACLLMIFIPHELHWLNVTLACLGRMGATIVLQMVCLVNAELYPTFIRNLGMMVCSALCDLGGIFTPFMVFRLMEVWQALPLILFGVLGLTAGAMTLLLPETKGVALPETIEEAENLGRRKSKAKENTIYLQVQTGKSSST

[4] = biological target: T3, Solute carrier family 22 member 3 (Homo sapiens, UniProt O75751); experiment: TP_TRANSPORTER: inhibition of MPP+ uptake in OCT3-expressing HEK293 cells
T3 sequence (O75751 whole entry): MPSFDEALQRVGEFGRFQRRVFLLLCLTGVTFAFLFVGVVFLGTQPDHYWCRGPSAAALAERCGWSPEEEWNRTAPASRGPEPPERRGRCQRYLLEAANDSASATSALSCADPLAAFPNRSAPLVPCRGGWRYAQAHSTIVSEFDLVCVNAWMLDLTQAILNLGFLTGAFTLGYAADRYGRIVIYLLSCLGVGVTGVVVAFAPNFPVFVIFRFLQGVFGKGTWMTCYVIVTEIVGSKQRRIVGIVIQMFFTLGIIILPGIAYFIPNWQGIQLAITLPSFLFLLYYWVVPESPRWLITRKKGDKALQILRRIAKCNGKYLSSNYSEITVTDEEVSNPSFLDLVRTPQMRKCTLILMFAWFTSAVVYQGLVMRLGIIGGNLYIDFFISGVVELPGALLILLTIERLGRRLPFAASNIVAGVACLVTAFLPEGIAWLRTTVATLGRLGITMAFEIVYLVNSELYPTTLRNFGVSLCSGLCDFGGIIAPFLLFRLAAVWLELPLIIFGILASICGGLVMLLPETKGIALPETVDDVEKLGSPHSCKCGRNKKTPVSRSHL

[5] = substrate: C[n+]1ccc(-c2ccccc2)cc1; experiment: as §1; type: functional, cell-based
[6] = substrate: N=C(N)N; experiment: as §1; type: functional, cell-based

| Molecule | Ki [1] [µM] | Activity [2] | further results |
| --- | --- | --- | --- |
| N=C(N)N [GUANIDINE] | 280 |  |  |
| CN1CC(=O)NC1=N [CREATININE] |  | substrate [+] |  |
| NCCc1c[nH]cn1 [HISTAMINE] | 390 |  | Ki [3]: 1400 µM; Ki [4]: 140 µM |
| CC[N+](CC)(CC)CC [TETRYLAMMONIUM] |  | substrate [+] |  |
| B1 |  |  | Km [5]: 9.4 µM; Km [6]: 730 µM |
